Data on four compounds can be found in patent publication US9161927B2, “Drug combinations containing PDE4 inhibitors and NSAIDs” (Boehringer Ingelheim International GmbH, priority 2009, dated 2015).

For data set [1], the system named is male Wistar rats. In words: Experiment 3: roflumilast-mediated weight loss, leukocytosis and neutrophilia in rats, with or without SC-560 or lumiracoxib. It is filed as in vivo, rat. Particulars: for leukocytosis (white blood cells, FIG. 2B on the left) / neutrophilia (neutrophils in % of white blood cells, FIG. 2B on the right): 95 hours after t0; for leukocytosis (white blood cells, FIG. 2B on the left) / neutrophilia (neutrophils in % of white blood cells, FIG. 2B on the right) / weight loss (body weight as percentage change from t0, FIG. 2A): p.o. for four days, roflumilast 10 mg/kg at 1300, SC-560 or lumiracoxib 2 mg/kg at 0800 and 1700, compared with control group.
Procedure: (§1) Six male Wistar rats in each group were treated for four days with the following substances (all substances are given p.o.=orally):
(§2) Group 1 (“control group”): Six male Wistar rats were given a daily dose of 0.5% Natrosol (placebo) at the times 0800, 1300 and 1700 hours.
(§3) Group 2 (“roflumilast group”): Six male Wistar rats were given a daily dose of 0.5% Natrosol (placebo) at 0800 and 1700 hours and 10 mg/kg roflumilast (PDE4 inhibitor) at 1300 hours.
(§4) Group 6 (“lumiracoxib group”): Six male Wistar rats were given a daily dose of 2 mg/kg lumiracoxib (NSAID, selective for COX-2) at the times 0800 and 1700 hours and 0.5% Natrosol at 1300 hours.
The average±standard deviation of the body weights at time t0 was 306±11 g.
At the end of the experiment (95 hours after t0 (=the time of the first administration on day 1, 0800 hours)) the proportion of white blood cells (×1000 cells/μl blood, FIG. 2B, left-hand Figure) and the proportion of neutrophils (in % of white blood cells, FIG. 2B, right-hand Figure) were determined from the blood of 5 of the rats from the individual groups.

Data set [2] deals with male Wistar rats. It is filed as in vivo. Particulars: affected animals out of animals examined; p.o. for four days, 95 hours after t0; roflumilast 10 mg/kg at 1300, diclofenac 1 mg/kg at 0800 and 1700.
Procedure: as §1, §2, §3
(§5) Group 3 (“roflumilast+diclofenac group”): Six male Wistar rats were given a daily dose of 1 mg/kg diclofenac (NSAID) at the times 0800 and 1700 hours and 10 mg/kg roflumilast (PDE4 inhibitor) at 1300 hours.
(§6) Group 4 (“diclofenac group”): Six male Wistar rats were given a daily dose of 1 mg/kg diclofenac (NSAID) at the times 0800 and 1700 hours and 0.5% Natrosol (placebo) at 1300 hours.
(§7) For pharmacokinetic analysis (determining the plasma levels of the substances) on day 4 one rat from each group was used; these rats were no longer available for other parameters under investigation.
(§8) At the end of the experiment (95 hours after t0 (=the time of the first administration on day 1, 0800 hours)) the rats from the individual groups were examined phenotypically and histopathologically for the presence of multifocal perivascular mononuclear infiltration (=inflammation parameter) in the mesentery and for the proliferation of fibroblasts in the mesentery. In addition, the occurrence of diarrhoea in the rats from the different groups was noted.
In data set [3] the test system is male Wistar rats. Description: Experiment 1: roflumilast-mediated weight loss, leukocytosis and neutrophilia in rats, with or without diclofenac.
Procedure: as §1, §2, §3, §5, §6, §7
The average±standard deviation of the body weights at time t0 was 355±17 g.
At the end of the experiment (95 hours after t0 (=the time of the first administration on day 1, 0800)) the proportion of white blood cells (×1000 cells/μl blood, FIG. 1B, left-hand Figure) and the proportion of neutrophils (in % of white blood cells, FIG. 1B, right-hand Figure) were determined from the blood of 4 or 5 of the rats from the individual groups.
Data set [4] relates to male Wistar rats. Description: Experiment 4: roflumilast-mediated diarrhoea and mesentery histopathology in rats, with or without SC-560 or lumiracoxib. It is filed as in vivo, rat. The settings on record: affected animals out of animals examined; p.o. for four days, 95 hours after t0; roflumilast 10 mg/kg at 1300, SC-560 or lumiracoxib 2 mg/kg at 0800 and 1700.
Procedure: as §1, §2, §3, §4, §8
Where [5] appears, read: 95 hours after t0, p.o. for four days, roflumilast 10 mg/kg at 1300, diclofenac 1 mg/kg at 0800 and 1700, compared with control group.
Where [6] appears, read: NSAID 2 mg/kg at 0800 and 1700 co-administered with roflumilast 10 mg/kg at 1300, p.o. for four days.

Read-outs that look alike come from different tables or passages of the source.

Take `O=C(Nc1c(Cl)cncc1Cl)c1ccc(OC(F)F)c(OCC2CC2)c1` [roflumilast]: in the data set with male Wistar rats [1], the “leukocytosis (white blood cells, FIG. 2B on the left)” value was “observed”; the “neutrophilia (neutrophils in % of white blood cells, FIG. 2B on the right)” value is “observed”; the “weight loss (body weight as percentage change from t0, FIG. 2A)” value is listed as “observed”. Also, in the data set with male Wistar rats [2], the Diarrhoea is 5/6, the “Mesentery: Proliferation of fibroblasts” value was 4/4 and the “Mesentery: multifocal perivascular mononuclear infiltration (=inflammation parameter)” value (from here on “Mesentery … (=inflammation parameter)”) is reported as 4/4. The “rats which died between day 4 and day 5 of the experiment” value in the data set on male Wistar rats [3] (group of six rats, roflumilast 10 mg/kg p.o. daily) is “one rat”. For the same compound, in the data set with male Wistar rats [4], the Diarrhoea is reported as 2/6, the “Mesentery: Proliferation of fibroblasts” value is reported as 5/5 and the “Mesentery … (=inflammation parameter)” value is listed as 5/5.
`O=C(O)Cc1ccccc1Nc1c(Cl)cccc1Cl` [diclofenac]: in the data set on male Wistar rats [2], the Diarrhoea is 0/6, the “Mesentery: Proliferation of fibroblasts” value was 0/5 and the “Mesentery … (=inflammation parameter)” value was 0/5. Also, in the data set with male Wistar rats [3] (setting [5]), the “leukocytosis (white blood cells, FIG. 1B on the left)” value is reported as “very similar to the control groups” and the “neutrophilia (neutrophils in % of white blood cells, FIG. 1B on the right)” value is recorded as “very similar to the control groups”. For the same compound, in the data set on male Wistar rats [3] (p.o. for four days, roflumilast 10 mg/kg at 1300, diclofenac 1 mg/kg at 0800 and 1700, compared with control group), the “weight loss (body weight as percentage change from t0, FIG. 1A)” value is “very similar to the control groups”.
In the case of `Cc1ccc(Nc2c(F)cccc2Cl)c(CC(=O)O)c1` [lumiracoxib], in the data set on male Wistar rats [1], the “leukocytosis (white blood cells, FIG. 2B on the left)” value is reported as “very similar to the control groups”; the “neutrophilia (neutrophils in % of white blood cells, FIG. 2B on the right)” value is on record as “very similar to the control groups”; the “weight loss (body weight as percentage change from t0, FIG. 2A)” value is on record as “very similar to the control groups”. Further, in the data set on male Wistar rats [4], the Diarrhoea is listed as 0/6, the “Mesentery: Proliferation of fibroblasts” value is 0/5 and the “Mesentery … (=inflammation parameter)” value is on record as 0/5.
Consider `COc1ccc(-n2nc(C(F)(F)F)cc2-c2ccc(Cl)cc2)cc1` [SC-560], for which, in the data set on male Wistar rats [1], the “leukocytosis (white blood cells, FIG. 2B on the left)” value is given as “very similar to the control groups”; the “neutrophilia (neutrophils in % of white blood cells, FIG. 2B on the right)” value is given as “very similar to the control groups”; the “weight loss (body weight as percentage change from t0, FIG. 2A)” value was “very similar to the control groups”. Further, in the data set with male Wistar rats [1] (setting [6]), the “protective effect on roflumilast-mediated leukocytosis” value is “absolutely no protective effect”, the “protective effect on roflumilast-mediated neutrophilia” value is listed as “absolutely no protective effect” and the “protective effect on roflumilast-mediated weight loss” value is on record as “absolutely no protective effect”. Further, the Diarrhoea in the data set with male Wistar rats [4] was 0/6.
